Measurements reported in patent US20210386752A1, “Uses of Electron Transport Chain Complex I or Complex II Inhibitors in Treating Cancer, Combination Therapies, and Diagnostic Methods Related Thereto” (Emory University, priority 2020, published 2021).

Tests used:
[1] = tested on: venetoclax-resistant MM lines; test: Venetoclax sensitization of resistant MM lines by ETC inhibitor cotreatment, viability by AnnexinV/DAPI staining; type: cell-based
Description: Cell viability assessed by AnnexinV/DAPI staining.
(§1) Given the unique role of Complex II in directly connecting the TCA cycle to the ETC, the impact of selectively inhibiting either the SDH or SQR activities of Complex II on venetoclax sensitivity was tested. The venetoclax sensitization effects of TTFA (SQR inhibitor) or 3NPA (SDH inhibitor) were tested on eight venetoclax-resistant MM lines (FIG. 3A-3H). 3NPA is a structural analog of succinate, which binds irreversibly with SDH inhibiting FAD reduction and fumarate production while TTFA is a direct Qp site inhibitor. […] The efficacy of the TTFA-venetoclax cotreatment strategy was also tested in a colony-forming unit assay. MM lines (L363 and KMS11) were cultured in an agar matrix with single agents or the combination.
To further inquire whether Complex I inhibition could also sensitize MM cells to venetoclax, a Complex I inhibitor was tested ([…]).

[2] = tested on: MM lines (L363 and KMS11); test: Colony-forming unit assay in agar matrix, TTFA-venetoclax cotreatment; type: cell-based; details: L363 and KMS11, venetoclax 0.1 μM
Description: as §1

[3] = target: T1, succinate dehydrogenase (SDH) (Homo sapiens, UniProt P31040); test: SDH activity assay in permeabilized cells; type: biochemical; details: TTFA-treated KMS11 cells
T1 construct: endogenous in cells; host or cells: KMS11 multiple myeloma cells, permeabilized
T1 sequence (P31040 43-664): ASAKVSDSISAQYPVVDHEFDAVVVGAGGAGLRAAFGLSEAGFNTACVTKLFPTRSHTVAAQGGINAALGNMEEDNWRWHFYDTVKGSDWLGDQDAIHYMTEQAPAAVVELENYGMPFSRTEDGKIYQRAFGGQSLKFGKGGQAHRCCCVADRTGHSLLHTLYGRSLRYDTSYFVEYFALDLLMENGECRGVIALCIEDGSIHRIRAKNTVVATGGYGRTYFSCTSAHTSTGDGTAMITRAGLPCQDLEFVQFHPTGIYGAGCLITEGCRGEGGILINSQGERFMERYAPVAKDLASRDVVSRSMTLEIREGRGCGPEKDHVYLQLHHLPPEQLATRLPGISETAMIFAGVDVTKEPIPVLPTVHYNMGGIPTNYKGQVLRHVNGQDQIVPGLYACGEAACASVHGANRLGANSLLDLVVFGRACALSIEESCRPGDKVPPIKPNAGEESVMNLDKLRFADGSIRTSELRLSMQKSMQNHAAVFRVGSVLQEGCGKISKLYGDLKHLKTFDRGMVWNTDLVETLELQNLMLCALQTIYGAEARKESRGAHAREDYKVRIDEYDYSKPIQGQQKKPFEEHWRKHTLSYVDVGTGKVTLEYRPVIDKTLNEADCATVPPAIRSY
T1 sequence (P21912 29-280 partner): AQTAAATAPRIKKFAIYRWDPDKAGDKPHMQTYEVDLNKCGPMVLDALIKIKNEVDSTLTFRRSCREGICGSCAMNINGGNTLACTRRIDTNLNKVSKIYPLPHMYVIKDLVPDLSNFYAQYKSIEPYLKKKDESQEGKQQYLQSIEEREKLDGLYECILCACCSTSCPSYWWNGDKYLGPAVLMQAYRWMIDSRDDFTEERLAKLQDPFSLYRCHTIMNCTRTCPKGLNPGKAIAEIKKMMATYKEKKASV
T1 sequence (Q99643 30-169 partner): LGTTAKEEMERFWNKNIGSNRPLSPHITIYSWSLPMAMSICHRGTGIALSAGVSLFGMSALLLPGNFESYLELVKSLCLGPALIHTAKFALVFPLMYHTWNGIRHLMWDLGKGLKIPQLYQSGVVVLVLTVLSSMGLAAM
T1 sequence (O14521 57-159 partner): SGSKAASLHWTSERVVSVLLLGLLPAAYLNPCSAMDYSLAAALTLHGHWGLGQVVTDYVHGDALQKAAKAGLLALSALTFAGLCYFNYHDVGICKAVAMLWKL
Text: Given reduced oxygen consumption rates (OCR) in sensitive cells, the activities of mitochondrial Complex I and II were examined. Mitochondrial Complex I and II receive electrons from the electron donors NADH or FADH2 respectively, that are transferred to the terminal electron acceptor (O2) via a series of redox reactions. Complex I or NADH:Coenzyme Q:oxidoreductase is the largest multimeric respiratory complex of ETC comprised of over 40 subunits with its catalytic subunit containing the NADH binding site. Electrons from NADH are transferred to FMN and then to FeS clusters and finally to ubiquinone where ubiquinone is reduced to ubiquinol. Complex II is the only enzyme that has a direct role both in the TCA cycle and ETC. […] Complex I activity was measured using an assay that relies on immunocapture of Complex I from freshly prepared cellular protein extracts. The NADH dehydrogenase activity of immunocaptured Complex I was determined by the oxidation of NADH and simultaneous reduction of the provided dye resulting in increase in absorbance. SDH and SQR activities were measured in live permeabilized cells, containing intact mitochondria pretreated with inhibitors of Complex I (rotenone), Complex III (antimycin) and Complex IV (sodium azide), allowing for selective measurement of SQR or SDH activity. […]

MM cell lines = test: Spare respiratory capacity (Seahorse XFe96 stress assay); type: cell-based; details: TTFA treated KMS11 cells
Description: Spare capacity in venetoclax-sensitive and venetoclax -resistant cells was determined by subtracting basal OCR from maximal OCR.

ATF4, NOXA = test: Immunoblot of whole cell lysates for ATF4 and NOXA; type: cell-based; details: 100 μM TTFA, 24 h, MM cells
BIM binding to BCL-2 = test: Coimmunoprecipitation of BCL-2 and bound BIM; type: cell-based; details: TTFA-treated KMS11 cells
Description: The regulation of ATF4, BIM and NOXA in MM cells that were not sensitized by TTFA treatment were investigated. Whole-cell lysates were evaluated for total protein expression. Coimmunoprecipitations was performed to examine binding of BIM with antiapoptotic BCL-2 in KMS11 and the TTFA insensitive-t(11;14) KMS21BM cells. Induction of BIM and NOXA were observed upon TTFA treatment (FIG. 5J) only in KMS11 not in the TTFA insensitive-t(11;14) KMS21BM cells.

[4] = tested on: CD38+ CD45− gated MM cells from myeloma patient bone marrow aspirates; test: Ex vivo venetoclax sensitivity of myeloma patient samples, Annexin V staining; type: cell-based, human
Description: CD38-PE and CD45-APC-Cy7 were used to gate myeloma cells. n=50 biological independent samples.
Bone marrow aspirate samples from 50 MM patients were treated with three doses of venetoclax (0.01, 0.1 and 0.5 μM) or TTFA (100 μM), or the combination for 24 h and cell death was assessed by AnnexinV staining. […] A venetoclax ICso <0.1 μM is characterized as a sensitive sample.
Bone marrow aspirates or peripheral blood samples from consenting myeloma patients were diluted to 25 mL with PBS and over laid on lymphocyte separation media. Following centrifugation, the collected buffy coat was washed with PBS and resuspended in culture medium. Cells subject to various treatments were stained with anti-CD38-phyocerythrin and anti-CD45-allophycocyanin-Cy7 to identify MM cells. CD138+ cells were purified using MACS CD138+ human microbeads. IC50S of venetoclax alone or in combination with TTFA/IACS-010759 in myeloma samples were calculated using nonlinear regression (curve-fit) analysis under agonist vs. normalized response with variable slope.

[5] = tested on: non-MM cells contained within the aspirate
Description: Bone marrow aspirate samples from 50 MM patients were treated with three doses of venetoclax (0.01, 0.1 and 0.5 μM) or TTFA (100 μM), or the combination for 24 h and cell death was assessed by AnnexinV staining.
The efficacy of IACS-010759 in sensitizing was tested in […] patient samples to venetoclax.

With O=C(CC(=O)C(F)(F)F)c1cccs1 [TTFA, 4,4,4-trifluoro-1-(2-thienyl)-1,3-butanedione] the sensitization to venetoclax ([1]; KMS21BM, TTFA at 100 μM) was “does not sensitize these cells to venetoclax”, the sensitization to venetoclax ([1]; L363, TTFA 100 μM, 24 h) was “sensitizes myeloma cell line L363 to venetoclax more effectively than inhibition of SDHA with 3-NPA” and the “sensitivity to venetoclax on cotreatment” value ([1]; eight venetoclax-resistant MM lines, 24 h) was “increased sensitivity to venetoclax in six of the eight lines tested”. For the same compound, the “sensitization to venetoclax, cellular viability in colony-forming unit assay” value [2] was “sensitized MM lines to a lower dose of venetoclax”, the SDH activity [3] was “remained unaffected” and the “spare respiratory capacity (SRC)” value (MM cell lines) was “concordantly reduced”. For the same compound, the “protein expression of ATF4, NOXA” value (ATF4, NOXA) was “Increased expression of ATF4, NOXA”, the “BIM binding to BCL-2” value (BIM binding to BCL-2) was “elevated BIM binding to BCL-2” and the “cell death with combination” value ([4]; 100 μM TTFA plus 0.1 μM venetoclax, 24 h, 50 patient samples) was “significantly more cell death”. The “samples sensitized (venetoclax IC50 <0.1 μM)” value ([4]; 100 μM TTFA, 15 of 50 samples) was 30%, the “samples with more than a 50% decrease in venetoclax IC50” value ([4]; 100 μM TTFA, 31 of 50 samples) was 62% and the “samples with increased venetoclax sensitivity (IC50 Ven+TTFA vs Ven)” value ([4]; 100 μM TTFA, 46 of 50 samples) was 92%. The “samples with greater than 50% reduction in venetoclax IC50” value ([4]; of ten ex vivo resistant samples, TTFA treatment) was “seven samples”, the “reduction in venetoclax IC50” value ([4]; t(11;14) patient relapsed on venetoclax, TTFA treatment) was “more than tenfold reduction” and the “increased sensitivity to venetoclax” value ([4]; ten ex vivo resistant samples with high SQR activity, TTFA treatment) was “all ten resistant samples showed increased sensitivity”. The “viability of non-MM cells” value [5] was “no to minimal impact on viability”.
